The source of these data is patent publication US9880171B2, “iASPP phosphorylation and metastatic potential” (LUDWIG INSTITUTE FOR CANCER RESEARCH LTD., priority 2012, dated 2018).

Numbering of substitutions follows the chain as printed. Names and notes keep the numbering of the source.

What all share (type): cell-based, human
Assay [1] concerns slow-migrating iASPP in H1299 cells. Kind of assay: induction of slow-migrating iASPP by chemotherapeutic agents in H1299 cells (WB). To be noted: H1299, overnight treatment (oxidative stress inducers 1-3 h; EDTA 4 mM 1 hour), antibody LX49.3. As to the method: FIG. 3. […] H1299 cells were treated overnight with the indicated concentrations of mitosis-arrest drugs nocodazole, colchicine and taxol, DNA damaging drugs, or oxidative stress inducers (1-3 h). Total lysate was prepared in UREA buffer, and iASPP expression patterns were determined using antibody LX49.3. […] Mitotic-arrest drugs were applied to H1299 cells to induce iASPP mobility shift. Floating and adherent cells were collected, and iASPP expression pattern was determined by western blotting (WB). C. […] Left panel, cells in mitosis (floating) and interphase (adherent) were collected by mitotic shake-off, and iASPP expression pattern was determined by WB. Right panel, H1299 cells after Taxol treatment, or mitotic shake-off were immunofluorescence stained using antibody LX49.3. In mitotic shake-off experiment, mitotic shake-off cells were cytospun to slides; the remaining adherent cells after shaking were scraped off and used as interphase control. […] Melanoma cells were treated with nocodazole overnight and iASPP expression patterns from total cell lysate was determined by WB.
FIG. 4. A. Floating and adherent H1299 cells separately collected by mitotic shake-off (FIG. 3C) were stained with propidium iodide (PI), followed by FACS analysis. […] B. H1299 cells were subjected to treatment of 10 μM nocodazole for 24 hours (Nocodazole), on ice for 30 minutes (Cold shock), or 4 mM EDTA for 1 hour (EDTA). Left panel: iASPP expression pattern was analysed by immunoblotting. Right panel: phase contrast images were taken before collection of the cells for WB analysis. Bar=20 μm.
For WB, cells were lysed in buffer containing 8 M urea, 1 M thiourea, 0.5% CHAPS, 50 mM DTT, and 24 mM spermine. A total of 40 μg of protein extract was loaded per lane into SDS-polyacrylamide gels. Gels were transferred onto nitrocellulose membrane (Protran) and the resulting blots incubated first with primary antibody overnight at 4° C. and then with the appropriate secondary horseradish peroxidize-conjugated antibody (Dako). The results were visualized by enhanced chemiluminescent detection (Amersham Biosciences) using X-ray film (Fujifilm). For cell lysate immunoprecipitation, cells were dissolved in NP40 buffer (50 mM Tris-HCl pH 8.0, 150 mM NaCl, 1% NP-40) with protease inhibitor cocktail mix (Roche Diagnostics). Cells were further thoroughly broken by ultrasonication, followed by spinning for 1 hour. Achieved suspension was adjusted to 1-2 mg/ml using NP40 buffer and incubated with 20 μl nickel beads, glutathione beads, or protein A beads (with 2 μg required antibody) for 2 h at room temperature. The beads were washed for four times with NP40 buffer, boiled for 5 min in Laemmli sample buffer, and applied for Western blotting. For pure protein immunoprecipitation, 5-10 μg purified proteins were mixed in NP40 buffer with 1 mg/ml BSA for 2 h at room temperature.
As mitotic cells often detach from the tissue culture dish, floating cells were separated from adherent cells after the treatment of Nocodozole, Taxol and Colchicine.

The subject of assay [2] is iASPP modification in H1299 cells. Kind of assay: nocodazole-induced iASPP modification in H1299 cells, G2/M kinase inhibitor panel (immunoblotting). To be noted: 2-10 μM, 10 μM nocodazole overnight. On the procedure:
FIG. 12. […] FIG. 12A. […] FIG. 12B. […] FIG. 12C.
FIG. 13. FIG. 13A. […] FIG. 13B.
FIG. 20. […] FIG. 20A. […] Bar=20 μm.
For WB, cells were lysed in buffer containing 8 M urea, 1 M thiourea, 0.5% CHAPS, 50 mM DTT, and 24 mM spermine. A total of 40 μg of protein extract was loaded per lane into SDS-polyacrylamide gels. Gels were transferred onto nitrocellulose membrane (Protran) and the resulting blots incubated first with primary antibody overnight at 4° C. and then with the appropriate secondary horseradish peroxidize-conjugated antibody (Dako). The results were visualized by enhanced chemiluminescent detection (Amersham Biosciences) using X-ray film (Fujifilm).
For orientation: Immunoblotting shows a protein as a band on a membrane.

Assay [3] has as its system nuclear entry of FITC labeled iASPP(625-828). Kind of assay: in vitro nuclear import assay in digitonin permeabilized H1299 cells. As to conditions: for nuclear entry of FITC labeled iASPP(625-828): pre-incubation with 0-1 mg/ml non-labeled protein, 2 hours. As to the method:
FIG. 7. S84/S113 phosphorylation of iASPP prevents N- and C-terminal self-interaction and promotes iASPP nuclear localization. A. N- and C-terminal iASPP self-interacts, and iASPP(1-240 of SEQ ID NO: 2)S84D/S113D fails to interact with C-terminal iASPP in vitro. Upper panel: 10 μg/ml purified GST-tagged iASPP (1-240 of SEQ ID NO: 2) or iASPP (249-482 of SEQ ID NO: 2) were incubated with 10 μg/ml purified 6*His-tagged iASPP (625-828 of SEQ ID NO: 2) or ASPP2 (905-1128 of SEQ ID NO: 2) in NP40 buffer for 2 hours. iASPP (1-240 of SEQ ID NO: 2) and iASPP (249-482 of SEQ ID NO: 2) were pulled down by glutathione beads. Bound iASPP (625-828 of SEQ ID NO: 2) and ASPP2 (905-1128 of SEQ ID NO: 2) were determined using anti-His antibodies. Lower panel: 10 μg/ml purified iASPP (1-240 of SEQ ID BO: 2)-GST mutants were incubated with 10 μg/ml mixture of iASPP (625-828 of SEQ ID NO: 2)-His and ASPP2 (905-1128 of SEQ ID NO: 2)-His in NP40 buffer for 2 hours. Interaction was determined as above. […] Cells were suspended in NP40 buffer, and interactions between overexpressed iASPP(1-478 of SEQ ID NO: 2)-V5 and purified iASPP(625-828 of SEQ ID NO: 2)-His were determined by co-immunoprecipitation. […] Cells were suspended in NP40 buffer, and interaction between endogenous iASPP and iASPP (1-240 of SEQ ID NO: 2)-GST was determined by co-immunoprecipitation. […] Upper right panel: H1299 cells were treated with or without nocodazole and iASPP mobility shift were determined in non-denaturing or denaturing WB. […] After 4 washes, the interaction between them was determined by co-immunoprecipitation using anti-GST and anti-V5 antibodies. […] Nuclear iASPP (625-828 of SEQ ID NO: 2)-FITC was determined by direct FITC fluorescence. iASPP(1-240)S84D/S113D and ASPP2(905-1128 of SEQ ID NO: 2) were used as control. […]
Purified proteins were labeled with FITC according to protocol from protein label kit (F-6434, Invitrogen). […] The cellular localization of the substrate was determined by direct fluorescence observation under confocol microscope. […]

Regarding `COc1cc2c(c(OC)c1OC)-c1ccc(OC)c(=O)cc1[C@@H](NC(C)=O)CC2` [Colchicine], the “induction of slow-migrating iASPP isoform” value (“induction” below) in assay [1] is reported as “induced”.

For `N.N.[Cl][Pt][Cl]` [Cisplatin], in assay [1], the “induction” value is recorded as “did not result in increased slow-migrating iASPP isoform expression”.

On to `OO` [hydrogen peroxide], for which the “induction” value in assay [1] was “did not result in increased slow-migrating iASPP isoform expression”.

`CC(=O)O[C@H]1C(=O)[C@@]2(C)[C@H]([C@H](OC(=O)c3ccccc3)[C@]3(O)C[C@H](OC(=O)[C@H](O)[C@@H](NC(=O)c4ccccc4)c4ccccc4)C(C)=C1C3(C)C)[C@]1(OC(C)=O)CO[C@@H]1C[C@@H]2O` [Taxol]: the “induction” value in assay [1] was “induced”.

Turning to `O=C(O)CN(CCN(CC(=O)O)CC(=O)O)CC(=O)O` [EDTA], in assay [1], the “induction” value was “failed to affect iASPP mobility”.

Regarding `CC[C@H](CO)Nc1nc(NCc2ccccc2)c2ncn(C(C)C)c2n1` [roscovitine], the results for the “prevention of nocodazole-induced iASPP modification” value in assay [2] (panel of 15 G2/M kinase inhibitors) and in assay [2] (panel of 18 G2/M kinase inhibitors) were “only weakly affected iASPP modification” and “failed to affect iASPP modification”, respectively.

Consider `CN[C@@H]1C[C@H]2O[C@@](C)([C@@H]1OC)n1c3ccccc3c3c4c(c5c6ccccc6n2c5c31)C(=O)NC4` [Staurosporine], for which, in assay [1], the “induction” value is “did not result in increased slow-migrating iASPP isoform expression”.

`COc1cccc2c1C(=O)c1c(O)c3c(c(O)c1C2=O)C[C@@](O)(C(=O)CO)C[C@@H]3O[C@H]1C[C@H](N)[C@H](O)[C@H](C)O1` [Doxorubicin]: the “induction” value in assay [1] is given as “did not result in increased slow-migrating iASPP isoform expression”.

B1: iASPP(1-240): purified recombinant N-terminal iASPP fragment, amino acids 1-240 of SEQ ID NO: 2, GST tag (protein, listed as Homo sapiens)
chain: MDSEAFQSARDFLDMNFQSLAMKHMDLKQMELDTAAAKVDELTKQLESLWSDSPAPPGPQAGPPSRPPRYSSSSIPEPFGSRGSPRKAATDGADTPFGRSESAPTLHPYSPLSPKGRPSSPRTPLYLQPDAYGSLDRATSPRPRAFDGAGSSLGRAPSPRPGPGPLRQQGPPTPFDFLGRAGSPRGSPLAEGPQAFFPERGPSPRPPATAYDAPASAFGSSLLGSGGSAFAPPLRAQDDL
modifications: GST tag
On to B1, for which, in assay [3], the “nuclear entry of FITC labeled iASPP(625-828)” value is reported as “effectively prevented the nuclear entry”. In addition, the “nuclear entry of ASPP2(905-1128)” value in assay [3] (pre-incubation with non-labeled protein) is on record as “no impact on the nuclear entry of ASPP2(905-1128)”.

B2: iASPP(1-240)S84D/S113D: iASPP phosphor-mimic mutant of the N-terminal fragment 1-240 (protein, listed as Homo sapiens)
chain: B1 chain with S84D, S113D
As for B2, in assay [3], the “nuclear entry of FITC labeled iASPP(625-828)” value was “failed to have any impact”.
